Measurements: patent publication EP4772498A1, “COMPOUND ACTING AS ANDROGEN RECEPTOR ANTAGONIST” (China Pharmaceutical University, priority 2023, dated 2025)
Marks after values point to notes of the source that are not given here.

Key:
AR = AR antagonistic activity: AR / PSA ARE1 luciferase reporter gene assay in transfected LNCaP cells stimulated with 1 nM DHT; assay type: cell-based; conditions: 24 h, normalised to 0.1% DMSO and 30 µM enzalutamide
Description: LNCaP cells were plated in a 6-well plate (Corning, 3516) at 8 × 10^5 cells/well.
AR and PSA ARE1 reporter gene plasmids (Bio (Anhui) Co., Ltd.) and transfection reagents Lipo3000 and P3000 (Lipofectamine™ 3000) (a total of 2.5 µg of plasmids, i.e., 1.25 µg of each plasmid, were added to each well) were left to stand and incubated for 10 min, and then 250 µL of the above transfection reagents were added dropwise to each well containing cells and co-incubated with the cells for 24 h.
The cells were washed with PBS, and the medium was replaced with a phenol red-free RPMI-1640 medium containing 5% carbon adsorption serum (or 10% fetal bovine serum and 1% penicillin and streptomycin). The cells were re-plated onto a 96-well plate (Corning, 3603) according to the number of cells plated (2 × 10^4 cells/well).
After cell plating, the test compound (or DMSO or positive control) was added. After at least 30 min of incubation, DHT (dihydrotestosterone) was added to the culture system at a final concentration of 1 nM. The culture system was then incubated in a carbon dioxide incubator.
Test compound: 10 mM stock solution, with a final concentration of 3.3 µM or 6.7 µM. Negative control: 0.1% DMSO. Positive control: 30 µM enzalutamide.
After the test compound (or DMSO or positive control) and DHT were co-incubated for 24 h, the luciferase signal was detected using the Vazyme Bright-Lite substrate. The medium was added at 70 µL/well, and the plate was shaken for 2 min, followed by reading of the luciferase signal.
Assay robustness was confirmed using the DMSO and low concentration control data: Ave_H = Ave(DMSO) [formula] Ave_L = Ave (30μMenzalutamide) [formula] Inhibition rate (%) = (Ave_H−Sample)/(Ave_H−Ave_L) × 100% [formula] Ave_H: the measurement of the negative control (0.1% DMSO); Ave_L: the measurement of the positive control (30 µM enzalutamide); Sample: the measurement of the test compound; The corresponding activity test results for the test compounds were specified in Table 1. Table 1. Corresponding activity test results for compounds disclosed herein

[1] = Metabolic stability assay in liver microsomes; assay type: in vitro ADME; conditions: human liver microsomes, pH 7.4, human liver microsome 0.5 mg/mL, 1 mM NADPH, compound 1 µM, 37 °C; for microsomal CLint at 1 µM: read-out: In vitro Clint; for half-life at 1 µM: read-out: In vitro T1/2
Description: The metabolic stability of compounds disclosed herein in liver microsomes was determined using the following method.
• 1. Liver microsome source: Human liver microsome (Corning, 452117) • 2. Na2HPO4 (Tianjin Guangfu Fine Chemical Research Institute, 20180130) • 3. KH2PO4 (Tianjin Guangfu Fine Chemical Research Institute, 20180920) • 4. MgCl2 (Tianjin Guangfu Fine Chemical Research Institute, 20191216) • 5. NADPH (Solarbio, 1216C022) • 6. Positive control compound verapamil (Sigma, MKBV4993V) • 7. AB Sciex Triple Quad 4000 liquid chromatography-mass spectrometry system
1. Preparation of 100 mM phosphate-buffered saline (PBS): 7.098 g Na2HPO4 was dissolved in 500 mL of purified water by sonication to give solution A. 3.400 g of KH2PO4 was dissolved in 250 mL of purified water by sonication to give solution B. Solution A was placed on a stirrer, and solution B was added slowly until the pH reached 7.4, so as to give a 100 mM PBS buffer. 2. Preparation of reaction system The reaction system was prepared according to the table below.
3. The reaction system was pre-incubated in a 37 °C water bath for 10 min. 40 µL of 10 mM NADPH solution (NADPH was dissolved in 100 mM phosphate-buffered saline) was added to the reaction system, with the final concentration of NADPH being 1 mM. A negative control was prepared by replacing the NADPH solution with 40 µL of phosphate-buffered saline. The negative control was used to exclude the effect of the chemical stability of the compound itself. 4. The reaction was initiated by adding 4 µL of 100 µM compound disclosed herein or positive control compound verapamil to the reaction system at a final concentration of 1 µM. 5. After 0.5 min, 15 min, 30 min, 45 min, and 60 min of mixing well by using a vortex oscillator, 50 µ L of the incubated sample was taken out, and glacial acetonitrile containing an internal standard of 4 folds was added to terminate the reaction. The sample was centrifuged at 3,220 g for 45 min. 90 µL of the supernatant was transferred to a feeding plate after the centrifugation was completed, and 90 µL ultrapure water was added. The mixture was well mixed for LC-MS/MS analysis.
All data were calculated by using Microsoft Excel software. The peak areas were determined by using an extracted ion chromatogram. The in vitro half-life (T1/2) of the test compound was determined by linear fitting of the natural logarithm of the elimination proportion of the test compound over time. In vitro half-life (T1/2) was calculated by the slope k: in vitro T1/2 = 0.693/k [formula]
The in vitro intrinsic clearance (in vitro CLint, unit: µL/min/mg protein) was calculated using the following formula: in vitro CLint = k × volume of incubation solution/enzyme protein content; [formula]

C57BL/6 mice = experiment: In vivo pharmacodynamic study 1: hair growth scoring in shaved telogen-phase mice, topical treatment; conditions: for Score (mean±SD): hair growth score 0-5, topical twice daily, compound 001 2 wt%, compound 008 0.5 wt%
Description: Vehicle: propylene glycol/ethanol (30:70, v/v)
Animal information: C57BL/6 mice (male, aged 4-6 weeks, about 18-20 g), purchased from Shanghai Lingchang Biotechnology Co., Ltd. The mice were bred in an SPF-level environment within independently ventilated cages.
Skin preparation: After 1-2 weeks of acclimation, the hairs in a 2 cm × 3 cm area of the back of the mice were shaved to confirm that the hairs of the mice were in the telogen phase (the skin was pink) and the skin was not damaged.
Treatment: On day 3 after shaving, the mice were grouped for treatment. […] The control group received the control solvent. 12 mice were in each group.
The mice were weighed on days 10, 13, 18, 21, 25, and 30, and the hair growth state was scored and photographed.
The scoring criteria are as follows: • 0: no growth, with pink skin in the shaved area; • 1: the skin in the shaved area was gray (an increase of less than 20%); • 2: the skin in the shaved area was black (more than 20% but less than 40%); • 3: the skin in the shaved area was black with a little hair growth (more than 40% but less than 60%); • 4: the skin in the shaved area was black with partial hair growth (more than 60% but less than 80%); • 5: basically complete hair growth (80%-100% growth) in the shaved area.

Whole blood stability = conditions: human
Description: 1 mM stock solutions of the test compounds were prepared in DMSO, and a 1 mM stock solution of the reference compound propantheline was prepared in acetonitrile.
4 µL of test compound (or reference compound) stock solution was added to 796 µL of pre-incubated human blood (whole blood) at a final concentration of 5 µM. The final concentration of the solvent was 0.5%. At different time points (including 5 min, 15 min, 30 min, 60 min, and 120 min), a 50 µL aliquot of the whole blood containing the sample was added to a new tube and incubated in a 37 °C water bath with shaking at 60 rpm. The treatment was performed in duplicate. At designated time points, 300 µL of room-temperature quenching solution (a solution of acetonitrile containing internal standards (100 nM alprazolam, 500 nM labetalol, and 2 µM ketoprofen)) was added to the whole blood sample containing the sample to terminate the reaction. 50 µL of whole blood containing the sample was added to a new tube containing 300 µL of room-temperature quenching solution to prepare a sample at 0 min. All samples were vortexed for 5 min. The samples in the plate were centrifuged at 3220 g for 30 min at 4 °C to precipitate the proteins. 100 µL of the supernatant was transferred to a new 96-well plate containing 100 µL of water for LC-MS/MS analysis.
The peak area ratio was determined by using an extracted ion chromatogram. The proportion of remaining compound at each time point was calculated according to the following formula: Remaning proporion t min (%) = peak area ratio t min / peak area ratio 0 min × 100% [formula] • Peak area ratio t min: peak area ratio of reference compound to test compound at t min; • Peak area ratio 0 min: peak area ratio of reference compound to test compound at time zero.
The slope value was determined by linear regression on the curve of the natural logarithm of the remaining proportion of the test compound versus the incubation time.
Determination of in vitro half-life (in vitro t1/2) from the slope value: in vitro t1/2 = 0.693/k [formula] in the formula, k is the rate constant (k = -slope value)

[2] = treatment concentration: 3.3 µM
[3] = at the investigated doses (001 2%, 008 0.5%, BID topical)
[4] = treatment concentration: 6.7 µM

SMILES: CCCCOC(=O)C(C)(O)C(=O)Nc1ccc(C#N)c(C(F)(F)F)c1 (stereo not drawn) [Compound 022, Butyl 3-[4-cyano-3-(trifluoromethyl)anilino]-2-hydroxy-2-methyl-3-oxo-propanoate]
- AR antagonism (inhibition rate, %) (AR; [2]): 81.05^a %

SMILES: CCCOC(=O)C(O)(C(=O)Nc1cnc(C#N)c(C(F)(F)F)c1)C(F)(F)F (stereo not drawn) [Compound 010, Propyl 2-[[6-cyano-5-(trifluoromethyl)-pyridin-3-yl]carbamoyl]-3,3,3-trifluoro-2-hydroxypropanoate]
- AR antagonism (inhibition rate, %) (AR; [2]): 82.14^a %

SMILES: CCOC(=O)[C@@](C)(O)C(=O)Nc1cnc(C#N)c(C(F)(F)F)c1 [Compound 002, Ethyl (2S)-3-[[6-cyano-5-(trifluoromethyl)pyridin-3-yl]amino]-2-hydroxy-2-methyl-3-oxopropanoate]
- microsomal CLint at 1 µM [1]: 32.5 µL/min/mg
- half-life at 1 µM [1]: 42.6 min
- AR antagonism (inhibition rate, %) (AR; [2]): 89.16^a %

SMILES: CCOC(=O)[C@](C)(O)C(=O)Nc1cnc(C#N)c(C(F)(F)F)c1 [Compound 003, ethyl (2R)-3-[[6-cyano-5-(trifluoromethyl)pyridin-3-yl]amino]-2-hydroxy-2-methyl-3-oxopropanoate]
- microsomal CLint at 1 µM [1]: 60.4 µL/min/mg
- half-life at 1 µM [1]: 22.9 min
- AR antagonism (inhibition rate, %) (AR; [2]): 75.26^a %

SMILES: CCOC(=O)C(O)(C(=O)Nc1ccc(C#N)c(SC)c1F)C(F)(F)F (stereo not drawn) [Compound 015, Ethyl 2-[(4-cyano-2-fluoro-3-methylsulfanyl-phenyl)carbamoyl]-3,3,3-trifluoro-2-hydroxy-propanoate]
- AR antagonism (inhibition rate, %) (AR; [2]): 65.06^a %

SMILES: CC(C)(C)OC(=O)C(C)(O)C(=O)Nc1cnc(C#N)c(C(F)(F)F)c1 (stereo not drawn) [Compound 014, tert-Butyl 3-[[6-cyano-5-(trifluoromethyl)-pyridin-3-yl]amino]-2-hydroxy-2-methyl-3-oxopropanoate]
- AR antagonism (inhibition rate, %) (AR; [2]): 90.3^a %

SMILES: CCOC(=O)C(O)(C(=O)Nc1cnc(C#N)c(C(F)(F)F)c1)C(F)(F)F (stereo not drawn) [Compound 008, Ethyl 2-[[6-cyano-5-(trifluoromethyl)-pyridin-3-yl]carbamoyl]-3,3,3-trifluoro-2-hydroxypropanoate]
- microsomal CLint at 1 µM [1]: 35.5 µL/min/mg
- half-life at 1 µM [1]: 39.1 min
- AR antagonism (inhibition rate, %) (AR; [2]): 86.95^a %
- Score (mean±SD) (C57BL/6 mice; Day 0): 0
- Score (mean±SD) (C57BL/6 mice; Day 10): 0.4±0.5
- Score (mean±SD) (C57BL/6 mice; Day 13): 0.6±0.5
- Score (mean±SD) (C57BL/6 mice; Day 18): 1.0±0.6
- Score (mean±SD) (C57BL/6 mice; Day 21): 1.1±0.7
- Score (mean±SD) (C57BL/6 mice; Day 25): 1.9±1.5
- Score (mean±SD) (C57BL/6 mice; Day 30): 2.8±2.1
- impact on the body weight of the mice (C57BL/6 mice; [3]): no significant impact
- signs of erythema, dehiscence, desquamation, and the like on the skin (C57BL/6 mice; [3]): no signs
- effect on mouse hair growth (C57BL/6 mice; compound 001 at 2%, compound 008 at 0.5%, BID topically at 20 µL/cm^2): significant promoting effect
- day of the treatment from which hair growth was significantly promoted (C57BL/6 mice; vs. vehicle control, 001 P < 0.01, 008 P < 0.05): ≥ 13 days

SMILES: CCCCOC(=O)C(O)(C(=O)Nc1cnc(C#N)c(C(F)(F)F)c1)C(F)(F)F (stereo not drawn) [Compound 011, Butyl 2-[[6-cyano-5-(trifluoromethyl)-pyridin-3-yl]carbamoyl]-3,3,3-trifluoro-2-hydroxypropanoate]
- AR antagonism (inhibition rate, %) (AR; [2]): 88.48^a %

SMILES: CCCCOC(=O)[C@@](C)(O)C(=O)Nc1cnc(C#N)c(C(F)(F)F)c1 [Compound 006, butyl (2S)-3-[[6-cyano-5-(trifluoromethyl)pyridin-3-yl]amino]-2-hydroxy-2-methyl-3-oxopropanoate]
- AR antagonism (inhibition rate, %) (AR; [2]): 93.92^a %

SMILES: CCCOC(=O)[C@](C)(O)C(=O)Nc1cnc(C#N)c(C(F)(F)F)c1 [Compound 005, propyl (2R)-3-[[6-cyano-5-(trifluoromethyl)-pyridin-3-yl]amino]-2-hydroxy-2-methyl-3-oxopropanoate]
- AR antagonism (inhibition rate, %) (AR; [2]): 58.52^a %

SMILES: CSc1cc(NC(=O)C(C)(O)C(=O)OC(C)(C)C)cnc1C#N (stereo not drawn) [Compound 049, tert-Butyl 3-[(6-cyano-5-methylthiopyridin-3-yl)amino]-2-hydroxy-2-methyl-3-oxo-propanoate]
- AR antagonism (inhibition rate, %) (AR; [4]): 90.02^b %

SMILES: CCCCOC(=O)C(C)(O)C(=O)Nc1ccc(Cl)c(C(F)(F)F)c1 (stereo not drawn) [Compound 023, Butyl 3-[4-chloro-3-(trifluoromethyl)anilino]-2-hydroxy-2-methyl-3-oxo-propanoate]
- AR antagonism (inhibition rate, %) (AR; [2]): 52.26^a %

SMILES: CCOC(=O)c1cccc(NC(=O)C(C)(O)C(=O)Nc2cnc(C#N)c(C(F)(F)F)c2)n1 (stereo not drawn) [Compound 032, Ethyl 6-(3-((6-cyano-5-(trifluoromethyl)pyridin-3-yl)amino)-2-hydroxy-2-methyl-3-oxopropanamido)picolinate]
- AR antagonism (inhibition rate, %) (AR; [2]): 47.7^a %

SMILES: CCOC(=O)C(C)(O)C(=O)Nc1cnc(C#N)c(SC)c1 (stereo not drawn) [Compound 016, Ethyl 3-[(6-cyano-5-methylthio-pyridin-3-yl)amino]-2-hydroxy-2-methyl-3-oxopropanoate]
- microsomal CLint at 1 µM [1]: 102 µL/min/mg
- half-life at 1 µM [1]: 13.6 min

SMILES: CCCOC(=O)[C@@](C)(O)C(=O)Nc1cnc(C#N)c(C(F)(F)F)c1 [Compound 004, Propyl (2S)-3-[[6-cyano-5-(trifluoromethyl)-pyridin-3-yl]amino]-2-hydroxy-2-methyl-3-oxopropanoate]
- AR antagonism (inhibition rate, %) (AR; [2]): 87.30^a %

SMILES: CC(C)OC(=O)C(C)(O)C(=O)Nc1cnc(C#N)c(C(F)(F)F)c1 (stereo not drawn) [Compound 013, Isopropyl 3-[[6-cyano-5-(trifluoromethyl)-pyridin-3-yl]amino]-2-hydroxy-2-methyl-3-oxopropanoate]
- AR antagonism (inhibition rate, %) (AR; [2]): 90.0^a %
- half-life at 5 µM (Whole blood stability): 349 min

SMILES: COc1cc(NC(=O)C(C)(O)C(=O)OC(C)(C)C)cnc1C#N (stereo not drawn) [Compound 048, tert-Butyl 3-[(6-cyano-5-methoxypyridin-3-yl)amino]-2-hydroxy-2-methyl-3-oxo-propanoate]
- AR antagonism (inhibition rate, %) (AR; [4]): 62.18^b %
